Patent publication US7674464B2, “Intracellular interleukin-1 receptor antagonists” (The University of Tennessee Research Foundation, priority 2004, dated 2010)
“Also recorded” adds a separate entry of the source.

Experiments:
icIL-1ra type 1 mRNA = assay: antisense oligonucleotide against icIL-1ra type 1 in HF-icIL-1ra fibroblasts, MMP-1 mRNA by RT-PCR; format: cell-based, human; details: for MMP-1 mRNA levels: HF-icIL-1ra, vs PBS, empty liposome, scrambled oligonucleotide
Procedure: Phosphorothioate-derivatized antisense oligodeoxynucleotide complimentary to −6 to +12 of the natural icIL-1ra was synthesized and purified by HPLC Integrated DNA Technologies Inc. (Coralville, Iowa). As a control, antisense oligonucleotide with a scrambled sequence was prepared by a similar method. Fibroblasts over-expressing icIL-1ra type 1 were transfected with […] of antisense icIL-1ra type 1 oligonucleotide (24 h prior to stimulation with 100 pg/ml of IL-1 beta) using LipofectAMINE™ protocol. PBS and LipofectAMINE™ alone served as additional controls. The cells were harvested 12-18 h after stimulation for RNA extraction. Total RNA was reverse transcribed and MMP-1 mRNA was estimated by semi-quantitative RT-PCR.
Fibroblasts over-expressing icIL-1ra type 1 were transfected with different concentrations of antisense icIL-1ra type 1 oligonucleotide (24 h prior to stimulation with IL-1β) using LipofectAMINE. PBS alone, LipofectAMINE alone and treatment with oligonucleotide having scrambled sequence served as controls. The cells were harvested 12-18 h after stimulation for RNA extraction. Total RNA was reverse transcribed and MMP-1 mRNA was estimated by real time RT-PCR. The values indicate mean±SD of three independent experiments performed on same batch of transfected geneticin selected fibroblasts (LIPO: LipofectAMINE alone, ANTIS-LIP: Antisense icIL-1ra oligonucleotide+LipofectAMINE, SCRAM-LIP: Scrambled oligonucleotide+LipofectAMINE).
Cells transfected with intracellular isoform of IL-1 receptor antagonist type 1 (HF-icIL-1ra) were treated with varying concentrations of antisense oligonucleotide directed against the intracellular isoform of IL-1 receptor antagonist type 1 mRNA. Oligonucleotide with a scrambled sequence was used as control. Both oligonucleotides were mixed with LipofectAMINE™ reagent to enhance cellular uptake.
Using the approach described in Example 5, a phosphorothioate-derivatized antisense oligodeoxynucleotide complimentary to −6 to +12 (5′-CGTCTGTAAAGGCATGGG-3′ SEQ ID NO: 41) of the natural icIL-1ra type 1 was synthesized and RHPLC purified. […]

collagenase (MMP-1) = assay: IL-1β-induced collagenase (MMP-1) production by dermal fibroblasts, ELISA; format: cell-based, human; details: added 2 hours before IL-1β, 48 hrs, IL1β + PBS 1351, PBS + PBS 556
Procedure: Confluent fibroblast monolayer cultures were treated for 2 hr with IL-1ra peptides and cultured for 48 h with hrIL-1β. Collagenase protein was measured in culture supernatants by ELISA.
Furthermore, the effect of the IL-1ra peptides on the stimulation of MMP-1 and TIMP expression was examined. Briefly, fibroblasts were seeded in wells of Flacon 3008 multiwell plates (5×10^4 cells/500 μl Maintenance Medium). After 72 h culture, the medium was removed from each well and replaced with Maintenance Medium (450 μl) containing 5% FCS and 25 μl of IL-1ra peptides or hrsIL-1ra peptide being tested. Two hrs later 25 μl IL-1β (100 pg/ml) was added to appropriate wells. Plates were incubated for 48 h, at which time medium was collected from each well. Levels of TIMP and collagenase produced by fibroblasts during culture were measured by specific ELISA techniques as previously described (Postlethwaite et al., 1988).

[1] = system: collagen-induced arthritis (CIA); assay: collagen-induced arthritis in DBA/1 lac mice, peptides by s.c. injection; format: in vivo; details: s.c. 227 μg/kg once daily, 5 consecutive days each week, day 22 to day 50, vs control peptide IL-1ra 37-30
Procedure: Groups of 12 mice were treated with subcutaneous injections of NLS-IL-1ra 1-35 (SEQ ID NO: 18), NLS-IL-1ra 30-37 ([…]) or IL-1ra 37-30 (SEQ ID NO: 43) as a control beginning day 22 to day 50. Mice were injected once each consecutive 5 days out of each week. Mean arthritic score is shoon. P values are determined by Students' t test.
The peptides disclosed in table 11 were delivered to the mice using 2 approaches. The first approach consisted of daily injections for 5 days each week via the subcutaneous (s.c.) route after the first appearance of clinical arthritis. The second approach consisted of continuous delivery via a subcutaneously implanted osmotic pump. For these studies, the following protocols were used: Since a smaller fragment of the 37 amino acid IL-1ra peptide containing amino acids LVAGY (SEQ ID NO: 42) inhibit IL-1β, TNFα, and bFGF induction of MMP-1 in human fibroblasts in vitro, effects of several peptides containing the LVAGY (SEQ ID NO: 42) sequence (Table 11) on CIA in mice was examined.
For s.c. injected route of delivery, 36 six-week old female DBA-1 lac mice were immunized with a stable emulsion of complete Freund's adjuvant (CFA) and native bovine II prepared as previously described (Seyer et al., 1989). Each mouse received 100 μg CII in 50 μl of the CFA CII emulsion intradermally at the base of the tail. Beginning day 14 post immunization, mice were examined for the presence of paw swelling as an indication of the onset of arthritis. On day 21 post immunization, the first paw swelling occurred in 2 mice and on day 22 post immunization, mice were divided into groups of 12. NLS-IL-1ra 1-35 (SEQ ID NO: 18), NSL-IL-1ra 30-37 (SEQ ID NO: 43), and reverse control peptide IL-1ra 37-30 (SEQ ID NO: 44) were separately administered s.c. to groups of 12 mice beginning on day 22 post immunization to day 50 post immunization. […] Results described herein are expressed as the mean arthritic score per mouse arrived at by adding up the total joint scores for mice in each group divided by the number of mice in the group.

collagenase [2] = assay: bFGF-stimulated fibroblast collagenase production; format: cell-based; details: bFGF + PBS 5058, PBS 645
Procedure: (§1) To potentially enhance translocation of the peptide, a nuclear localization sequence (NLS), namely, KKKMEKR from human IL-1β was added to the peptide with SEQ ID NO: 13 and the effect of the peptide with and without the NLS on collagenase production was assessed. In this case the cultures were stimulated with TNF-α or basic fibroblast growth factor (bFGF).

[3] = system: collagen-induced arthritis (CIA); assay: collagen-induced arthritis in DBA/1 mice, peptide by osmotic pump; format: in vivo
Procedure: The mice (total=20) were immunized by subcutaneous injection at the base of the tail with 100 μg/ml of bovine CII in CFA at day 0. At day 20, an Alzet Osmotic pump-2004 containing 1.67 mg NLS-IL-1ra (1-35) peptide (SEQ ID NO: 18) in 200 microliters D5W solvent (n=10) or the solvent alone (n=10) was surgically inserted subcutaneously in each of 10 mice. Beginning at 21 days after immunization, mice were monitored for the severity (FIG. 40A) and incidence (FIG. 40B) of arthritis.
For osmotic pump delivery of peptide, at day 20 following immunization, an Alzet Osmotic pump-2004 (Durect Corporation, Cupertino, Calif.), containing 1.67 mg NLS-ILra 1-35 peptide in 200 microliters D5W solvent was surgically inserted subcutaneously in each of 10 mice. According to the manufacturer's specifications, the pumps are designed to inject constantly for 4 weeks at the speed of […] 6 μl (50 μg peptide)/day. Each of the 10 control mice received a pump containing same amount D5W only. Animals were periodically monitored for incidence and severity of arthritis and scored as described above.

collagenase [4] = assay: TNF alpha-stimulated fibroblast collagenase production; format: cell-based; details: TNF alpha + PBS 9391, PBS 645
Procedure: as §1

[5] = IL1β (100 pg/mL) + peptide 100 ng/mL
[6] = IL1β (100 pg/mL) + peptide 1 μg/mL
[7] = IL1β (100 pg/mL) + peptide 10 μg/mL

| Substance | Collagenase (collagenase (MMP-1); [5]) | Collagenase (collagenase (MMP-1); [6]) | Collagenase (collagenase (MMP-1); [7]) | other results |
| --- | --- | --- | --- | --- |
| 5′-CGTCTGTAAAGGCATGGG-3′ (DNA, all phosphorothioate, methylation of C not given here) |  |  |  | reduced expression of MMP-1 mRNA and protein in icIL-1ra transfected fibroblasts (icIL-1ra type 1 mRNA; FIG. 36): reversed; MMP-1 mRNA levels (icIL-1ra type 1 mRNA; 200 mM antisense, 1.0 ng/ml hrIL-1β): significantly higher; MMP-1 mRNA levels (icIL-1ra type 1 mRNA; 300 mM antisense with LipofectAMINE, IL-1β stimulated, p=0.001): significantly higher |
| KKKMEKRLVAGYLQG (IL-1ra peptide) [NLS IL-1ra 30-37] |  |  |  | suppression of CIA, mean arthritic score ([1]; listed as NSL IL-1ra 30-37): suppressed CIA; suppression of CIA, mean arthritic score ([1]; listed as NSL-sIL-1ra 30-37): effective in reducing arthritis |
| KKKMEKRRPSGRKSSKMQAFRIWDVNQKTFYLRNNQLVAGYL (IL-1ra peptides) [NLS-IL-1ra] |  |  |  | suppression of CIA, mean arthritic score [1]: suppressed CIA; Collagenase (collagenase [2]; bFGF (5 ng/ml) + peptide 100 pg/ml): 2367 ng/mL; Collagenase (collagenase [2]; bFGF (5 ng/ml) + peptide 1 ng/ml): 2541 ng/mL; Collagenase (collagenase [2]; bFGF (5 ng/ml) + peptide 10 ng/ml): 3167 ng/mL; Collagenase (collagenase [2]; bFGF (5 ng/ml) + peptide 100 ng/ml): 3199 ng/mL; Collagenase (collagenase [2]; bFGF (5 ng/ml) + peptide 1 μg/ml): 5649 ng/mL; incidence and severity of arthritis ([3]; osmotic pump from day 20, 50 μg peptide/day for 4 weeks, vs D5W solvent, listed as NLS-IL-1ra 1-35): reduced; also recorded: reduces incidence and severity of arthritis; delay of the onset of arthritis ([3]; osmotic pump, incidence and severity reached control levels after this time): 20 days; Collagenase (collagenase [4]; TNF alpha (5 ng/ml) + peptide 100 pg/ml): 243 ng/mL; Collagenase (collagenase [4]; TNF alpha (5 ng/ml) + peptide 1 ng/ml): 238 ng/mL; Collagenase (collagenase [4]; TNF alpha (5 ng/ml) + peptide 10 ng/ml): 1199 ng/mL; Collagenase (collagenase [4]; TNF alpha (5 ng/ml) + peptide 100 ng/ml): 1254 ng/mL; Collagenase (collagenase [4]; TNF alpha (5 ng/ml) + peptide 1 μg/ml): 849 ng/mL |
| RPSGRKSSKMQAFRI (IL-1ra peptides) [SEQ ID NO: 19] | 1746 ng/mL | 1152 ng/mL | 1267 ng/mL |  |

The next lines start with results.

| Collagenase (collagenase (MMP-1); [5]) | Collagenase (collagenase (MMP-1); [6]) | Collagenase (collagenase (MMP-1); [7]) | Substance | other results |
| --- | --- | --- | --- | --- |
| 1514 ng/mL | 1827 ng/mL | 1881 ng/mL | FYLRNNQ (IL-1ra peptides) [SEQ ID NO: 22] |  |
| 2142 ng/mL | 2361 ng/mL | 2581 ng/mL | FYLRNNQLVAGYLQG (IL-1ra peptides) [SEQ ID NO: 21] |  |
| 857 ng/mL | 841 ng/mL | 749 ng/mL | LVAGYLQG (IL-1ra peptides) [SEQ ID NO: 24] |  |
| 2644 ng/mL | 2139 ng/mL | 2036 ng/mL | MQAFRIWDVNQKTFYLR (IL-1ra peptides) [SEQ ID NO: 20] |  |
| 541 ng/mL | 619 ng/mL | 1078 ng/mL | NNQLVAGY (IL-1ra peptides) [SEQ ID NO: 23] |  |
